# According to BindingDB's records for PubMed 35660250 (COMSATS University Islamabad, 2022):
# How the values were obtained:
# [1] = Antagonist activity against human P2X4R stably transfected in human 1321N1 cells assessed as ATP EC50 at 0.1 uM incubated for 30 mins by Fura-2 AM staining based calcium influx assay
# [2] = Antagonist activity against human P2X4R stably transfected in human 1321N1 cells assessed as ATP EC50 at 0.05 uM incubated for 30 mins by Fura-2 AM staining based calcium influx assay
# [3] = Antagonist activity against human P2X4R stably transfected in human 1321N1 cells assessed as ATP EC50 at 0.2 uM incubated for 30 mins by Fura-2 AM staining based calcium influx assay
# [4] = Antagonist activity against human P2X7R stably transfected in human 1321N1 cells assessed as BzATP EC50 at 0.1 uM incubated for 30 mins by Fura-2 AM staining based calcium influx assay
# [5] = Antagonist activity against human P2X7R stably transfected in human 1321N1 cells assessed as BzATP EC50 at 0.05 uM incubated for 30 mins by Fura-2 AM staining based calcium influx assay
# [6] = Antagonist activity against human P2X7R stably transfected in human 1321N1 cells assessed as BzATP EC50 at 0.2 uM incubated for 30 mins by Fura-2 AM staining based calcium influx assay
Compound,EC50 [1],EC50 [2],EC50 [3],EC50 [4],EC50 [5],EC50 [6]
O=C(NC(=S)Nc1c(Br)ccc(C(F)(F)F)c1Br)c1ccc2c(c1)OCO2,10.1 µM,10.8 µM,10.8 µM,,,
O=C(NC(=S)Nc1cccc2cccnc12)c1ccc2c(c1)OCO2,,,,9.44 µM,8.31 µM,9.14 µM
